This passage reports TGI results from PubChem BioAssay (NCI).

Molecules are shown by their SMILES.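 Assay format: 96-well plates, 48-hour exposure. At the TGI there is no net growth.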

Among the test systems are A498 renal; A549 NSCLC; CCRF-CEM leukemia; HOP-92 NSCLC; MALME-3M melanoma; MDA-MB-231 breast; NCI-H23 lung; NCI/ADR-RES ovarian; OVCAR-3 ovarian; OVCAR-8 ovarian; SF-268 CNS; SN12C renal; SW-620 colon; TK-10 renal; U251 CNS; UACC-62 melanoma; HL-60(TB) leukemia; SF-539 CNS; T-47D breast.
What all share (assay): growth of human tumour cells (NCI), 48 h

In the case of `Cc1sc2nc3n(c(=O)c2c1C)N=CN(c1ccc(Cl)cc1)C3`, the TGI in the assay on A498 renal, with A549 NSCLC, in the assay with CCRF-CEM leukemia, with HOP-92 NSCLC, in the assay with MALME-3M melanoma and in the assay with MDA-MB-231 breast was over 100 µM throughout. Moreover, the TGI in the assay on NCI-H23 lung, in the assay with NCI/ADR-RES ovarian, with OVCAR-3 ovarian, in the assay with OVCAR-8 ovarian, with SF-268 CNS and in the assay with SN12C renal was over 100 µM each time. Besides, the TGI with SW-620 colon, with TK-10 renal, in the assay on U251 CNS and in the assay on UACC-62 melanoma was over 100 µM in each case.

With `COc1cc(C2c3cc4c(cc3C(=O)C3CCC(=O)N32)OCO4)cc(OC)c1O` (centres undefined), the TGI in the assay with A498 renal, in the assay on A549 NSCLC, in the assay with CCRF-CEM leukemia, in the assay on HL-60(TB) leukemia, in the assay with HOP-92 NSCLC and in the assay with NCI-H23 lung was over 50 µM in each case. For the same compound, the TGI in the assay with NCI/ADR-RES ovarian, with OVCAR-3 ovarian, in the assay on OVCAR-8 ovarian, in the assay on SF-539 CNS, with SN12C renal and in the assay with SW-620 colon was over 50 µM throughout. For the same compound, the TGI in the assay with T-47D breast, in the assay with U251 CNS and in the assay with UACC-62 melanoma was over 50 µM each time.

Take `CCSC1=N/C(=C\c2ccco2)C(=O)N1`: the TGI in the assay on A498 renal, in the assay on A549 NSCLC, in the assay with CCRF-CEM leukemia, with HOP-92 NSCLC, in the assay on MALME-3M melanoma and in the assay with MDA-MB-231 breast was over 100 µM in each case. Moreover, the TGI with NCI-H23 lung, in the assay on NCI/ADR-RES ovarian, in the assay with OVCAR-3 ovarian, with OVCAR-8 ovarian, in the assay on SF-268 CNS and in the assay on SN12C renal was over 100 µM throughout. Also, the TGI with SW-620 colon, with TK-10 renal, in the assay on U251 CNS and with UACC-62 melanoma was over 100 µM each time.

`O=C(Nc1ccccc1)OCCN=C1c2ccccc2CCc2ccccc21`: the TGI was over 100 µM in the assay on A549 NSCLC; 55.7 µM with CCRF-CEM leukemia; 42.2 µM in the assay on HL-60(TB) leukemia; 57.9 µM in the assay on MALME-3M melanoma; 37.1 µM in the assay on MDA-MB-231 breast; over 100 µM in the assay with NCI-H23 lung. The TGI in the assay on NCI/ADR-RES ovarian is 72.4 µM; in the assay on OVCAR-3 ovarian, 44.3 µM; with OVCAR-8 ovarian it was over 100 µM; with SF-268 CNS, 75.4 µM; in the assay on SF-539 CNS it was 34.8 µM; with SN12C renal, 40.2 µM. For the same compound, the TGI in the assay with SW-620 colon was over 100 µM; in the assay on T-47D breast it was 45 µM; with TK-10 renal it was over 100 µM; with U251 CNS it was 32.1 µM; in the assay with UACC-62 melanoma it was 26.7 µM.

For `CCCc1nc2c(n1CC)C(=O)c1ccccc1C2=O`, the TGI was over 100 µM in the assay with A549 NSCLC; over 100 µM in the assay with CCRF-CEM leukemia; over 100 µM in the assay with HL-60(TB) leukemia; 60.5 µM in the assay with MALME-3M melanoma; over 100 µM in the assay with MDA-MB-231 breast; over 100 µM with NCI-H23 lung. Moreover, the TGI in the assay on NCI/ADR-RES ovarian was 78.7 µM; with OVCAR-3 ovarian, over 100 µM; with SF-268 CNS, over 100 µM; in the assay with SF-539 CNS, over 100 µM; with SN12C renal, over 100 µM; in the assay with SW-620 colon, over 100 µM. Further, the TGI in the assay with T-47D breast, with TK-10 renal, with U251 CNS and in the assay with UACC-62 melanoma was over 100 µM in each case.

As to `CO/C(=N\N=C\c1ccc(Cl)c(Cl)c1)c1ccncc1`, the TGI in the assay on A549 NSCLC, in the assay with CCRF-CEM leukemia, with HL-60(TB) leukemia, in the assay on HOP-92 NSCLC, in the assay on MALME-3M melanoma and in the assay on NCI-H23 lung was over 10 µM throughout. Besides, the TGI in the assay with NCI/ADR-RES ovarian, in the assay on OVCAR-3 ovarian, in the assay on OVCAR-8 ovarian, with SF-268 CNS, in the assay on SF-539 CNS and in the assay with SN12C renal was over 10 µM throughout. The TGI with SW-620 colon, in the assay with T-47D breast, in the assay with TK-10 renal and in the assay on U251 CNS was over 10 µM throughout.

Consider `Cn1nnc2c3c(N(CCO)CCO)ccnc3ccc21`, for which the TGI with A549 NSCLC, in the assay with CCRF-CEM leukemia, with MALME-3M melanoma, with MDA-MB-231 breast, in the assay with NCI-H23 lung and in the assay with NCI/ADR-RES ovarian was over 100 µM each time. The TGI in the assay with OVCAR-3 ovarian, with OVCAR-8 ovarian, in the assay on SF-268 CNS, in the assay on SF-539 CNS, with SN12C renal and in the assay on SW-620 colon was over 100 µM each time. For the same compound, the TGI in the assay on T-47D breast, in the assay on TK-10 renal and in the assay on UACC-62 melanoma was over 100 µM in each case.

Regarding `Cc1ccc(S(=O)(=O)N/N=C2/CCC3(O)CC2(C)CCC2[C@H]3CC2(C)C)cc1` (some centres undefined), the TGI is over 100 µM with A549 NSCLC; 86.1 µM with CCRF-CEM leukemia; over 100 µM in the assay on HL-60(TB) leukemia; 87.6 µM in the assay with HOP-92 NSCLC; over 100 µM in the assay with MALME-3M melanoma; 83.5 µM in the assay on NCI-H23 lung. Also, the TGI in the assay on NCI/ADR-RES ovarian, in the assay with OVCAR-3 ovarian, with OVCAR-8 ovarian, in the assay on SF-268 CNS, with SN12C renal and in the assay on SW-620 colon was over 100 µM each time. The TGI with T-47D breast was over 100 µM; in the assay with TK-10 renal, over 100 µM; with U251 CNS it was 36 µM; in the assay on UACC-62 melanoma, 60 µM.

For the compound `C[C@@H]1CC[C@H]2[C@H](C)C(OC3O[C@@H]4O[C@@]5(C)CC[C@H]6[C@H](C)CC[C@@H]([C@@H]3C)[C@@]46O5)O[C@@H]3O[C@@]4(C)CC[C@@H]1[C@]32O4` (some centres undefined), the TGI in the assay with A498 renal, in the assay on A549 NSCLC, in the assay on CCRF-CEM leukemia, with HL-60(TB) leukemia, in the assay on MALME-3M melanoma and in the assay on MDA-MB-231 breast was over 100 µM in each case. In addition, the TGI with NCI-H23 lung, in the assay on OVCAR-3 ovarian, in the assay on OVCAR-8 ovarian, in the assay on SF-268 CNS, in the assay on SF-539 CNS and in the assay with SN12C renal was over 100 µM in each case. Moreover, the TGI in the assay with SW-620 colon, in the assay with T-47D breast, with TK-10 renal, with U251 CNS and with UACC-62 melanoma was over 100 µM in each case.
